Reference: US4824860A, “Treatment of Parkinsons disease” (priority 1987, dated 1989)

How the values were obtained:
[1] = Mouse spontaneous locomotor activity using individual cages equipped with photocells (test 1); format: in vivo; conditions: for dose profile of effect on locomotor activity: 'in these tests' (locomotor tests 1-3), inhibition at low, stimulation at high dose
Description: 1. Mouse spontaneous locomotor activity using individual cages equipped with photocells.

[2] = Mouse spontaneous locomotor activity using treadwheels (test 2); format: in vivo
Description: 2. Mouse spontaneous locomotor activity using treadwheels.

[3] = Mouse spontaneous locomotor activity measuring climbing frame behaviour (test 3); format: in vivo
Description: 3. Mouse spontaneous locomotor activity measuring climbing frame behaviour.

[4] = Measurement of stereotyped behaviour in the mouse (test 4); format: in vivo
Description: 4. Measurement of stereotyped behaviour in the mouse.

[5] = Rat spontaneous locomotor activity using photocell cages: measurement of stereotypy (test 5); format: in vivo
Description: 5. Rat spontaneous locomotor activity using individual cages equipped with photocells: measurement of stereotypy.

[6] = Hyperactivity following direct administration into the mesolimbic nucleus accumbens of the rat (test 6); format: in vivo
Description: 6. Measurement of hyperactivity following direct administration into the mesolimbic nucleus accumbens of the rat. An indicator of anti-depressant activity.
Enhancement of locomotor activity by amphetamine and other dopamine agonists is difficult to measure because it is complicated by the development of stereotypies. […] Direct action of a compound to cause hyperactivity following administration into the mesolimbic nucleus accumbens is considered to be indicative of anti-depressant activity.

[7] = Asymmetry and circling after unilateral administration into the extrapyramidal caudate-putamen (striatum) (test 7); format: in vivo, rat
Description: 7. Effect on observed locomotor activity following direct administration into the extrapyramidal caudate-putamen (striatum). A test for anti-Parkinsonism potential.

[8] = Anti-depressant activity in the mouse using the Porsolt test (test 8); format: in vivo; conditions: mice
Description: 8. Measurement of anti-depressant activity in the mouse using the `Porsolt Test`.

[9] = Anxiolytic activity in the mouse using a black and white test box (test 9); format: in vivo
Description: 9. Anxiolytic activity in the mouse using a black and white test box.

MPTP-treated marmoset = MPTP-treated marmoset model of anti-Parkinson activity (test 10); format: in vivo
Description: 10. MPTP-treated marmoset model. A test for anti-Parkinson activity.
(i) Parkinsonism-like motor deficits (hypokinesia and bradykinesia) were induced in marmosets by the intranigral infusion of 1-methyl-4-phenyl-1,2,3,6-tetrahydropyridine (MPTP) for 13 days via an implanted injection unit and osmotic minipump (Test 10). […] Drug assessments were begun after 7-10 days of infusion.

5HT1 receptors = assay: Receptor binding studies using rat brain: 5HT1
dopamine D1 receptors = assay: Receptor binding studies using rat brain: dopamine D1
[10] = 10 μg injected directly into the mesolimbic nucleus accumbens
[11] = 0.05 mg/kg s.c., mean n=4, P<0.05
[12] = 0.05 mg/kg s.c., mean of responding animals only
[13] = 0.1 mg/kg s.c., mean n=4, P<0.01
[14] = 1.0 mg/kg s.c., mean n=4, P<0.01
[15] = 0.1-1 mg/kg i.p., separate study

SMILES: CCCN(CCC)CCc1cccc2c1CC(=O)N2.Cl [Compound A, 4-(2-di-n-propylaminoethyl)-2-(3H)-indolone hydrochloride]
- spontaneous locomotor activity ([1]; photocell cages, 1.0 and 10.0 mg/kg i.p., statistically significant (P<0.01-0.001) at 10 mg/kg): inhibition of spontaneous locomotor activity
- locomotor activity ([1]; photocell test, 100 mg/kg, P<0.001): Stimulation of locomotor activity
- locomotor activity ([2]; treadwheel test, 100 mg/kg, P<0.001): Stimulation of locomotor activity
- spontaneous locomotor activity ([2]; treadwheels, 1.0 and 10.0 mg/kg i.p.): inhibition of spontaneous locomotor activity
- locomotor activity ([3]; 100 mg/kg, no stimulation): original inhibition was reversed
- spontaneous locomotor activity ([3]; 1.0 and 10.0 mg/kg i.p., statistically significant at 1.0 mg/kg): inhibition of spontaneous locomotor activity
- stereotypy ([4]; mouse, 1.0, 10.0 and 100 mg/kg i.p., only periodic sniffing): no dose dependent stereotypies
- stereotypy ([5]; rat, 1.0, 10.0 and 100 mg/kg i.p., only periodic sniffing): no dose dependent stereotypies
- spontaneous locomotion ([5]; rat, 10.0 and 100.0 mg/kg i.p., P<0.001): dose-related increases in spontaneous locomotion
- duration of increase in spontaneous locomotion ([5]; rat, higher dose (100.0 mg/kg i.p.)): > 2.5 h
- spontaneous locomotion ([6]; 1.0 μg into the nucleus accumbens, tendency to inhibition in first 10 minutes): ineffective
- spontaneous locomotion [6, 10]: marked (P<0.001) increase in spontaneous locomotion
- asymmetry and circling behaviour ([7]; 0.01-10.0 μg unilaterally into caudate-putamen, statistically significant at 1.0 and 10.0 μg): marked contralateral asymmetry and circling behaviour
- anti-depressant activity ([8]; 0.1-10 mg/kg i/p.): statistically significant (P<0.05) anti-depressant activity
- anti-depressant activity compared with amitriptyline ([8]; amitriptyline 2.4-40 mg/kg i.p.): greater than amitriptyline
- period in the black area ([9]; 0.1-10 mg/kg i.p.): correspondingly reduced period in the black area
- time spent in the white section ([9]; 0.1-10 mg/kg i.p.): statistically significant increase in the time spent in the white section
- % time in head movements (MPTP-treated marmoset; 0.01 mg/kg s.c., mean n=4): 26%
- % time spent in LMA (MPTP-treated marmoset; 0.01 mg/kg s.c., mean n=4): 4%
- LMA (% control) (MPTP-treated marmoset; 0.01 mg/kg s.c., mean n=4): 26 % control
- % time in head movements (MPTP-treated marmoset; [11]): 36%
- % time spent in LMA (MPTP-treated marmoset; [11]): 12%
- LMA (% control) (MPTP-treated marmoset; [11]): 47 % control
- % time in head movements (MPTP-treated marmoset; [12]): 80%
- % time spent in LMA (MPTP-treated marmoset; [12]): 23%
- LMA (% control) (MPTP-treated marmoset; [12]): 70 % control
- % time in head movements (MPTP-treated marmoset; [13]): 83%
- % time spent in LMA (MPTP-treated marmoset; [13]): 29%
- LMA (% control) (MPTP-treated marmoset; [13]): 93 % control
- % time in head movements (MPTP-treated marmoset; [14]): 84%
- % time spent in LMA (MPTP-treated marmoset; [14]): 28%
- LMA (% control) (MPTP-treated marmoset; [14]): 103 % control
- development of tolerance (MPTP-treated marmoset; 0.1, 1.0 mg/kg s.c. twice daily for 7 days): no development of tolerance
- motor behaviour (MPTP-treated marmoset; MPTP marmosets, 0.05-1.0 mg/kg s.c., at 0.05 mg/kg 1 or 2 marmosets did not respond): fully restored normal motor behaviour
- movements in the limbs, trunk, head and neck (MPTP-treated marmoset; MPTP marmosets, s.c., most marked effect): full restoration of normal movements
- MPTP-induced motor deficits (MPTP-treated marmoset; oral, each of 0.1, 0.5 or 1.0 mg/kg, seven listed motor deficits): Partial reversal
- response (MPTP-treated marmoset; oral, highest dose 1.0 mg/kg, n=3): supramaximal
- response (MPTP-treated marmoset; oral, lowest dose 0.1 mg/kg, n=2): submaximal
- emesis (MPTP-treated marmoset; oral, the two lower doses (0.1, 0.5 mg/kg)): No emesis

SMILES: N[C@@H](Cc1ccc(O)c(O)c1)C(=O)O [L-DOPA, reference compound]
- MPTP-induced motor deficits (MPTP-treated marmoset; 12.5 mg/kg i.p. 30 min. pretreatment, after benserazide 12.5 mg/kg s.c. 90 min. pretreatment): restored MPTP-induced motor deficits
- effectiveness compared with Compound A (MPTP-treated marmoset; L-DOPA 12.5 mg/kg i.p. after benserazide 12.5 mg/kg s.c., versus 0.1 mg/kg s.c. Compound A): less effective than 0.1 mg/kg s.c. Compound A

SMILES: CC(N)Cc1ccccc1 (stereo not drawn) [amphetamine, reference compound]
- dose profile of effect on locomotor activity [1]: biphasic activity
- stereotypy ([4]; mouse, doses up to 10.0 mg/kg i.p., continuous biting, gnawing and licking): marked stereotyped behaviour
- stereotypy ([5]; rat, doses up to 10.0 mg/kg i.p., continuous biting, gnawing and licking): marked stereotyped behaviour
- spontaneous locomotion [6, 10]: equally effective
- asymmetry and circling behaviour ([7]; up to 100 μg unilaterally into caudate-putamen): inactive

SMILES: CN1CCc2cccc3c2[C@H]1Cc1ccc(O)c(O)c1-3 [apomorphine, reference compound]
- dose profile of effect on locomotor activity [1]: biphasic activity
- stereotypy ([4]; mouse, 2.0 mg/kg s.c., continuous biting, gnawing and licking): marked stereotyped behaviour
- stereotypy ([5]; rat, 2.0 mg/kg s.c., continuous biting, gnawing and licking): marked stereotyped behaviour
- asymmetry and circling behaviour ([7]; up to 50 μg unilaterally into caudate-putamen): inactive

SMILES: CC(C)C[C@H]1C(=O)N2CCC[C@H]2[C@]2(O)O[C@](NC(=O)[C@@H]3C=C4c5cccc6[nH]c(Br)c(c56)C[C@H]4N(C)C3)(C(C)C)C(=O)N12 [bromocriptine, reference compound]
- swimming time ([8]; 0.1-1 mg/kg i.p., effect at the higher dose): statistically significant reduction in swimming time
- investigatory activity in the black area [9, 15]: statistically significant increase in investigatory activity in the black area
- light aversion [9, 15]: no change in the light aversion
- MPTP-induced motor deficits (MPTP-treated marmoset; 0.1 mg/kg s.c.): little effect
- affinity for 5HT1 receptors (5HT1 receptors): showed affinity

SMILES: CCCN1C[C@H](CSC)C[C@@H]2c3cccc4[nH]cc(c34)C[C@H]21 [pergolide]
- affinity for 5HT1 receptors (5HT1 receptors): showed affinity
- affinity for dopamine D1 receptors (dopamine D1 receptors): bound to dopamine D1 receptors
